Among the test systems are DLD-1; DMS-114; DMS-273; HOP-18; KM-20L2; LXFL 529; M19-MEL; BT-549; RXF 631.
Assay in all cases: inhibition of tumour cell growth, NCI panel, 48 h

Structures are written as SMILES.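 A five-concentration, 48-hour dose response in 96-well plates underlies each endpoint, interpolated linearly between surrounding concentrations. GI50 marks 50% less growth.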 The source made the active and inactive calls. No stated cut-off is given here; in the data, active = GI50 up to about 1.1 µM and inactive = higher. Bounds are passed on as bounds.

In the case of `CNC(=O)OCc1nccc2c(C)c3[nH]c4ccc(OC)cc4c3cc12`, the GI50 with DLD-1 is 2.99 µM (inactive); in the assay on DMS-114, 2.92 µM (inactive); with DMS-273, 7.23 µM (inactive); in the assay with HOP-18 it was 2.47 µM (inactive); in the assay on KM-20L2, 3.11 µM (inactive); with LXFL 529, 5.74 µM (inactive). Further, in the assay with M19-MEL, the GI50 was 5.61 µM (inactive).
For the compound `CCOc1ccc(NC2=CC(=O)C(=O)c3ccccc32)cc1`, the GI50 is 1.66 µM (inactive) in the assay with BT-549; 4.43 µM (inactive) with DLD-1; 1.88 µM (inactive) in the assay on DMS-114; 2.88 µM (inactive) with DMS-273; 2.6 µM (inactive) with HOP-18; 18.7 µM (inactive) with KM-20L2. Also, the GI50 in the assay with LXFL 529 is 3.47 µM (inactive); with M19-MEL, 0.647 µM (active).
As for `CCc1cccc(=O)c([O-])c1.CCc1cccc(=O)c([O-])c1.[Bi+3].[Cl-]`, the GI50 in the assay with DLD-1 is 2.91 µM (inactive); in the assay with DMS-114 it was 3.01 µM (inactive); in the assay with DMS-273, 7.53 µM (inactive); in the assay with HOP-18, 16.2 µM (inactive); in the assay on KM-20L2, 10.5 µM (inactive); with LXFL 529, 1.71 µM (inactive). The GI50 is 6.98 µM (inactive) in the assay on M19-MEL and 4.13 µM (inactive) in the assay with RXF 631.
Consider `NC1=NC(=O)/C(=C/c2ccccc2[N+](=O)[O-])C(N)=N1`, for which the GI50 with DLD-1, in the assay with DMS-114, with DMS-273, with HOP-18, in the assay on KM-20L2 and with LXFL 529 was > 100 µM (inactive) throughout. Moreover, the GI50 in the assay with M19-MEL and in the assay with RXF 631 was > 100 µM (inactive) each time.
`CCOc1ccccc1NC(=O)CC1SC(Nc2ccc([N+](=O)[O-])cc2)=NC1=O` (stereo unspecified): the GI50 in the assay with DLD-1 is 22.9 µM (inactive); in the assay on DMS-114 it was 13.1 µM (inactive); in the assay on HOP-18 it was 17.6 µM (inactive); with KM-20L2, 19.4 µM (inactive); in the assay with LXFL 529 it was 17.7 µM (inactive); in the assay with M19-MEL, 25.4 µM (inactive).
As for `Cc1cccc(NC(=O)CC(=O)N2N=C(N(CCC#N)c3ccc(Cl)cc3)CC2c2ccccc2)c1` (stereo unspecified), the GI50 in the assay with DLD-1, in the assay on DMS-114, in the assay with DMS-273, with HOP-18, with LXFL 529 and in the assay on M19-MEL was > 100 µM (inactive) throughout. For the same compound, in the assay on RXF 631, the GI50 is > 100 µM (inactive).
Consider `O=C1C=C(Nc2ccccc2C(=O)CC(=O)C(=O)Nc2cccc(C(F)(F)F)c2)c2ccccc2C1=O`, for which the GI50 in the assay with BT-549 was 8.93 µM (inactive); in the assay on DLD-1, 8.45 µM (inactive); with DMS-114, 13 µM (inactive); with DMS-273, 21.5 µM (inactive); with HOP-18 it was 13.2 µM (inactive); with KM-20L2, > 100 µM (inactive). Moreover, the GI50 in the assay with LXFL 529 is 18.3 µM (inactive); in the assay on M19-MEL it was 2.53 µM (inactive); with RXF 631, > 100 µM (inactive).
For `CC1(C)C(=O)N(CCCCCCN2C(=O)C(C)(C)c3ccccc32)c2ccccc21`, the GI50 with DMS-114 was 21.6 µM (inactive); in the assay with DMS-273 it was 40.9 µM (inactive); with HOP-18, 81.1 µM (inactive); in the assay with KM-20L2 it was 37.2 µM (inactive); with LXFL 529, 39.1 µM (inactive); in the assay on M19-MEL, 22.6 µM (inactive).
As for `CCOC(=O)C(=O)Nc1ccccc1C(C)C`, the GI50 with DLD-1, in the assay with DMS-114, in the assay with DMS-273, in the assay on HOP-18, in the assay on KM-20L2 and in the assay with LXFL 529 was > 100 µM (inactive) in each case. The GI50 in the assay on M19-MEL and with RXF 631 was > 100 µM (inactive) throughout.
Turning to `C1=C2/CC[C@H](Sc3ccccc3)[C@H]2C2(CCCCC/1)OCCO2`, the GI50 in the assay with DLD-1 was 61.4 µM (inactive); with DMS-273, 39.4 µM (inactive); in the assay on HOP-18, 72.8 µM (inactive); in the assay on KM-20L2 it was 21.1 µM (inactive); in the assay with LXFL 529, 46.7 µM (inactive); in the assay on M19-MEL it was 25.1 µM (inactive).
For the compound `COc1ccc(CN2C(=O)C(Cc3cc(OC)c(OC)c(C)c3OC)NC(=O)/C2=C/c2cc(OC)c(OC)c(C)c2OC)cc1` (stereo unspecified), the GI50 in the assay on DLD-1 was 33 µM (inactive); in the assay on DMS-114 it was 33.2 µM (inactive); in the assay on DMS-273, > 10 µM (inactive); in the assay on HOP-18, 26.1 µM (inactive); in the assay with KM-20L2, 25 µM (inactive); in the assay on LXFL 529 it was 31.8 µM (inactive). The GI50 in the assay with M19-MEL was 19.3 µM (inactive); with RXF 631, 43 µM (inactive).
Regarding `CN(C)CC1(Cc2ccccc2)CCC(Cc2ccccc2)C1=O` (stereo unspecified), the GI50 in the assay on BT-549 was 8.95 µM (inactive); in the assay on DLD-1 it was 2.86 µM (inactive); in the assay on DMS-114, 15.8 µM (inactive); in the assay with DMS-273 it was 10.5 µM (inactive); in the assay with HOP-18, 8.47 µM (inactive); in the assay on KM-20L2 it was 17.1 µM (inactive). Also, the GI50 was 2.71 µM (inactive) in the assay with LXFL 529 and 16.5 µM (inactive) with M19-MEL.
On to `Brc1cc2c(cc1C1SCCS1)OCO2`, for which the GI50 with DLD-1 is > 100 µM (inactive); in the assay on DMS-114, 37.3 µM (inactive); in the assay with DMS-273, > 100 µM (inactive); in the assay on HOP-18 it was > 100 µM (inactive); in the assay on KM-20L2, > 100 µM (inactive); with LXFL 529, > 100 µM (inactive). Further, the GI50 in the assay with RXF 631 was > 100 µM (inactive).
On to `Cn1nc(-c2ccccc2)c(C(=O)/C=C/c2ccc(F)cc2)c(N2CCOCC2)c1=O`, for which the GI50 in the assay on DLD-1 was 23.1 µM (inactive); with DMS-114 it was 15.9 µM (inactive); in the assay on DMS-273, 19.1 µM (inactive); in the assay with HOP-18 it was 17.3 µM (inactive); in the assay with KM-20L2, 15.1 µM (inactive); with LXFL 529, 16 µM (inactive). Moreover, the GI50 in the assay on M19-MEL is 18.5 µM (inactive); with RXF 631 it was 27.7 µM (inactive).
In the case of `COC(=O)C1=CC2C=CC(C1C(=O)OC)C1C(C(=O)OC)=C(C(=O)OC)C(C(=O)OC)=C(C(=O)OC)C21OC` (stereo unspecified), the GI50 in the assay on DLD-1, with DMS-114, in the assay with DMS-273, with HOP-18, in the assay with KM-20L2 and in the assay on LXFL 529 was > 100 µM (inactive) throughout. For the same compound, the GI50 in the assay with M19-MEL and with RXF 631 was > 100 µM (inactive) each time.
As for `CCN(CC)CCCNc1nccc2c(C)c3[nH]c4ccncc4c(=O)c3cc12`, the GI50 in the assay with DLD-1 is 1.79 µM (inactive); with DMS-114, 0.494 µM (active); with DMS-273 it was 2.19 µM (inactive); with HOP-18 it was 2.52 µM (inactive); in the assay with KM-20L2, 4.11 µM (inactive); in the assay on LXFL 529, 1.48 µM (inactive). In addition, in the assay with RXF 631, the GI50 is 1.92 µM (inactive).
Regarding `CN1C(=O)CCC2[C@@H]3CC=C4C[C@@H](O)CC[C@]4(C)C3CC[C@@]21C` (stereo partly specified), the GI50 with DLD-1 was > 100 µM (inactive); with DMS-114, 16.4 µM (inactive); in the assay with DMS-273 it was 64.1 µM (inactive); with KM-20L2, 53.5 µM (inactive); in the assay with LXFL 529 it was 29.1 µM (inactive); in the assay with M19-MEL, 50.6 µM (inactive). Besides, the GI50 in the assay on RXF 631 is 28 µM (inactive).
Turning to `O=c1c2c([nH]c3cc4c(cc13)OCO4)-c1ccccc1C2`, the GI50 is 23.5 µM (inactive) in the assay on DLD-1; 19.2 µM (inactive) in the assay on DMS-273; 24.2 µM (inactive) with HOP-18; 19 µM (inactive) with KM-20L2; 22.7 µM (inactive) in the assay on LXFL 529.
As for `O=C(N[C@H]1CC2(C=C(I)C(=O)C(I)=C2)OC1=O)OCc1ccccc1`, the GI50 with DLD-1 was 15.7 µM (inactive); in the assay on DMS-114, 19.8 µM (inactive); in the assay on KM-20L2, 18.6 µM (inactive); in the assay on LXFL 529, 16.6 µM (inactive); in the assay on RXF 631 it was 17.1 µM (inactive).
